Measurements published in US12404332B2, “Methods for diagnosing and treating cancers” (Research Development Foundation, priority 2020, dated 2025).
Residues, ends and D or L forms follow the SMILES beside them. *: point of attachment. Cbz = O=C(OCc1ccccc1)*

Assays:
[1] = test system: ID8agg murine ovarian cancer cells; assay: In vitro viability (MTT) of CTRL versus PD-L1^KO ID8agg cells; format: cell-based, mouse; details: monotherapy
Method: (§1) Cells (1×10^3) were plated in 96 well plastic culture plates in respective medium and treated for 5 days with DDRi or 3 days with gemcitabine at indicated concentrations. Drug concentrations were carefully optimized in preliminary work not shown. Cell viability was by MTT (3-(4,5-dimethylthiazol-2-yl)-2,5-diphenyl tetrazolium bromide) at 5 mg/ml. Absorbance was measured at 540 nm. Results are presented as a mean+/−SEM of ≥6 replicates. Total cells and viability were confirmed using a Vi-Cell-XR (Beckman Coulter).

[2] = test system: RT4 human bladder cancer cells; assay: In vitro viability (MTT) of CTRL versus PD-L1^KO RT4 cells; format: cell-based; details: monotherapy
Method: as §1

[3] = test system: 4T1 murine breast cancer cells; assay: In vitro viability (MTT) of CTRL versus PD-L1^lo 4T1 cells; format: cell-based, mouse
Method: as §1

RT4 cells = assay: Chk1 inhibitor synthetic lethality with beta-lactam antibiotics, RT4 cells; format: cell-based, human; details: for synthetic lethality with Chk1i: RT4 cells, Chk1i rabusertib
Method: Additional experiments were performed, as follows. MB49 were plated at 2,000 cells/well in 96 well flat bottom plates and treated with PD-L1 depleting drugs, olaparib (2.5 μM), and combination for 96 hours. RT4 were plated at 2,000 cells/well in 96 well flat bottom plates and treated with cefepime, rabusertib (1 μM), praxasertib, or combination for 96 hours. ID8agg, 4T1, and B16 cells were plated on fibronectin at 500 cells/well and treated with cefepime, rabusertib, or combination for 96 hours. Normalized treatment combination to DDR inhibitor alone, and PD-L1 depleting drug to vehicle alone (DMSO) were evaluated.

PD-L1 in OVCAR5 cells = assay: PD-L1 mRNA, protein and ubiquitination in OVCAR5 cells; format: cell-based, human; details: OVCAR5 cells
Method: FIGS. 39A-C: CAMB reduces PD-L1 through ubiquitination. FIG. 39A, RT-qPCR for PD-L1 mRNA in OVCAR5 and ID8agg cells treated with (+) or without (−) chlorambucil for 48 hours. (n=4). FIG. 39B, Western blot for PD-L1 protein in OVCAR5 cells with (+) or without (−) MG132 for 6 or 20 hours. (upper panel). PD-L1 expression in OVCAR5 cells treated with chlorambucil 48 hours and/or MG132 for 6 hours (lower panel). FIG. 39C, Ubiquitinated PD-L1 was immunoprecipitated (IP) and subjected to Western blot analysis with anti-ubiquitin (Ub) antibody. Cells were treated with chlorambucil for indicated times prior to ubiquitination analysis.
(§2) Western blotting and immunoprecipitation: To prepare whole cell lysates, cells were harvested and lysed in RIPA (radioimmunoprecipitation assay) buffer plus 1 mM phenylmethylsulphonyl fluoride and Halt protease/phosphatase inhibitor cocktail (Thermo Scientific) at 4° C. Protein concentrations were measured by BCA Protein Assay Kit (Thermo Scientific). Protein was run on precast 4-15% sodium dodecyl sulfate polyacrylamide gels (Bio-Rad), transferred to polyvinylidene fluoride membranes (GE Water and Process Technologies), and then blocked in 5% non-fat milk for 1 hour at room temperature. The membranes were then incubated with 1:1000 diluted primary antibodies against indicated proteins (Cell Signaling). Specific antibody binding was detected by chemiluminescence using Western Lightening Plus regent (Perkin Elmer). Cells for (co) immunoprecipitation experiments were seeded in 15-cm dishes and cultured as described, using 6 million cells per immunoprecipitation reaction. For protein ubiquitination, cells were lysed in denaturing buffer (50 mM Tris-HCl, 0.5 mM EDTA and 1% SDS) followed by heating at 95° C. for 10 minutes and then quenched with 9 volumes of quenching buffer (0.5% Triton X-100, 20 mM Tris-HCl (pH 8.0), 137 mM NaCl, 10% glycerol, 2 mM EDTA). Protease inhibitor cocktail (Roche) was added fresh to all buffers. Cell lysates were incubated on a rotator for 30 minutes at 4° C., and then centrifuged at 20,000 g for 15 minutes at 4° C. Supernatants were subsequently incubated with anti-PD-L1 antibody overnight and processed using Dynabeads Protein G for Immunoprecipitation (Thermo Fisher Scientific). The final eluate was processed and Western blotting was performed.
Quantitative Real-Time Reverse Transcriptase Polymerase Chain Reaction: Total RNA was isolated from homogenized whole lung tissue with Trizol reagent (Invitrogen) according to manufacturer instructions. […] Quantitative PCR (qPCR) was conducted using the Bio-Rad Real-Time PCR System (Applied Biosystems), amplified with transcript-specific primers with SYBR Green (Thermo Scientific), according to manufacturer instructions. […]

PD-L1 = assay: Tumor cell PD-L1 depletion by drugs (flow cytometry, immunoblot); format: cell-based, human and mouse; details: for expression of PD-L1 in cancer cells: summary statement
Method: High throughput Screening: B16 PD-L1 RFP cells were treated with 2.5 and 10 μM compounds from the Prestwick and LOPAC Libraries for 48 hours using the Agilent Bravo liquid pipetting platform. Then, cells were washed with PBS, and fixed with 4% paraformaldehyde (Electron Microscopy Sciences, Hatsfield, PA, Cat 15714S) and labeled with 2 μg/ml DAPI, (Molecular Probes, Cat D1306) and 1 μg/ml Cell Mask-Blue (Invitrogen, Cat. H32720). Plates were then imaged using the Operetta High Content Imaging System, Perkin Elmer, Waltham (DAPI and Cell Mask Blue, Ex 360-400, Em 410-480), and the RFP channels (Ex 520-550, Em 560-630) channels. Agents effecting ≥2-fold PD-L1 reduction in the RFP reporter without loss of ≥20% cell viability were candidate PD-L1 depletion agents.
Flow cytometry: Mice were sacrificed by cervical dislocation after induction of deep isoflurane anesthesia. ID8agg tumors were collected and cells were stained as described (Derup et al., 2020) using LSR II hardware and analyzed by FACS Diva (BD Bioscience) or Flow Jo software (Flow Jo, LLC). Anti-mouse (clone 10F.9G2) and human (clone 29E.2A3) PD-L1 [both PE/Cy7, Cat #124314 (mouse) 329718 (human)] were matched with isotype control. Apoptosis assessment used Annexin V and propidium iodide (Thermo Scientific) per manufacturer instruction.
as §2

mTORC1 = assay: Western blots for mTORC1 pathway and LC3 autophagy; format: cell-based
Method: FIGS. 40A-C: CAMB suppresses mTORC1 signals and reduces TIC numbers. FIG. 40A, Western blots for proteins in the mTORC1 pathway. Cells were treated with chlorambucil as indicated concentration for 48 hours. FIG. 40B, Western blot for LC3I/II to assess autophagy in cell lysates treated±chlorambucil at indicated concentrations. FIG. 40C, Percent of ALDH^hi TIC by flow cytometry of ES2 cells cultured±chlorambucil. Percent CD44^+CD24^+ ID8agg TIC and CD44^+CD133^+CD24^+ B16 TIC detected by flow cytometry.
as §2

[4] = test system: PD-L1, Chk2, gH2AX in RT4 cells; assay: Cefepime depletion of PD-L1 and Chk2, DNA damage (gH2AX); format: cell-based, human
Method: Experiments were performed to see if beta-lactam antibiotics may deplete PD-L1 in cancer cells. RT4 cells were incubated at 80 μM cefepime.
Next experiments were performed to see if beta-lacatam antibiotics can deplete Chk2 in vitro. RT4 cells were treated with 1 μM rabusertib (Chk1i), 75 μM cefepime (D7), or combination. Protein lysates were collected at 24, 48, 72, and 96 hours.

[5] = test system: UV induced TpN^61R derived CD274^+/+ or CD274^−/− melanoma cells; assay: Viability of de novo Nras CD274^+/+ versus CD274^−/− melanoma cells; format: cell-based, mouse; details: in vitro
Text: FIGS. 26A-H: De novo PD-L1^KO tumors phenocopy important aspects of genetic PD-L1 depletion in established tumors. FIG. 26A, Melanoma-free survival of melanocyte specific CD274^fl,fl TpN^61R (KO) versus littermate (WT) autochthonous mice under conditions shown. FIG. 26B, Validation of PD-L1 expression by immunoblot (IB) of melanoma cells derived from UV induced (4.5 Kj/m^2) WT (CD274^+/+) or melanocyte specific CD274^KO (CD274^−/−) mice±in vitro interferon (IFN)-γ treatment. Viability curves of CD274^+/+ versus CD274^−/− cells treated with the selective Chk1 inhibitors FIG. 26C, prexasertib […] or FIG. 26D, rabusertib (LY2603618) in vitro at indicated concentrations. FIG. 26E, IB analysis of PD-L1, ATM, Chk2, and γH2AX of vehicle or rabusertib-treated CD274^+/+ and CD274^−/− cell lines. FIGS. 26F-H, Tumor growth curves in WT C57BL/6J mice (n=10 tumors/group) challenged with UV induced TpN^61R derived CD274^+/+ or CD274^−/− melanoma cells and treated with rabusertib (Chk1i, LY2603618) on the indicated treatment schedule. P values, two-way ANOVA.

[6] = test system: CTRL and PD-L1^KO RT4 cells; assay: Viability of RT4 cells treated with Chk1 inhibitor plus atezolizumab; format: cell-based, human; details: in vitro, absence of immune cells
Method: FIGS. 27A-H: Anti-PD-L1 antibodies mimic genetic PD-L1 depletion to impair tumor cell-intrinsic DDR signals and promote sensitivity to Chk1 inhibition in vitro and in vivo. Cell viability of FIG. 27A, CTRL and FIG. 27B, PD-L1^KORT4 cells treated with LY2603618 (Chk1 inhibitor) as shown plus IgG1 isotype or atezolizumab (atezo, 3 μg/ml) for 72 hours in vitro. Mean+SEM, n=6 replicates, ***, P<0.001, unpaired t-test. FIG. 27C, Immunoblot (IB) analysis of ATM, Chk2, γH2AX and vinculin (VINC) of RT4 cells treated in vitro with isotype, atezolizumab, Chk1i, or their combination. FIG. 27D, Viability of 4T1 cells as in panel A substituting anti-murine PD-L1 and isotype controls. FIG. 27E, IB of 4T1 as in panel FIG. 27C. FIG. 27F, Tumor curves of NSG mice (n=10 tumors/group) challenged with 4T1 tumor cells and treated with Chk1i±αPD-L1. FIG. 27G, Tumor curves and FIG. 27H, tumor weights in WT […] mice challenged and treated as in panel FIG. 27F. P values, two-way ANOVA.

Molecule: CN(C)CCCOc1ccc(-c2ccc3ncc4c(c3c2)n(C2CCOCC2)c(=O)n4C)cn1 [AZD0156]
- sensitivity of PD-L1^KO versus control ID8agg cells to the agent [1]: Minimal effects
- sensitivity of PD-L1^KO versus control RT4 cells to the agent [2]: Minimal effects

Molecule: C[C@@H]1COCCN1c1cc(C2([S@](C)(=N)=O)CC2)nc(-c2cc[nH]c3nccc2-3)n1 [AZD6738]
- sensitivity of PD-L1^KO versus control ID8agg cells to the agent ([1]; listed as ATRi): enhanced sensitivity
- sensitivity of PD-L1^lo versus control 4T1 cells to the agent [3]: enhanced sensitivity

Molecule: CO/N=C(\C(=O)N[C@@H]1C(=O)N2C(C(=O)O)=C(CSc3nc(=O)c(=O)[nH]n3C)CS[C@H]12)c1csc(N)n1 [Ceftriaxone]
- synthetic lethality with Chk1i (RT4 cells): not as effective

Molecule: CC(C)C[C@@H](C=O)NC(=O)[C@H](CC(C)C)NC(=O)[C@H](CC(C)C)NC(=O)OCc1ccccc1 [MG132] (Cbz-Leu-Leu-Leu-aldehyde)
- effect on CAMB-mediated PD-L1 reduction (PD-L1 in OVCAR5 cells): abolished CAMB-mediated PD-L1 reduction
- PD-L1 expression (PD-L1 in OVCAR5 cells; by 6 hours after treatment): increased PD-L1 expression

Molecule: Nc1nc2c(ncn2CCOCP(=O)(O)O)c(=O)[nH]1 [PMEG, 9-(2-phosphonylmethoxyethyl) guanine]
- effect on cell viability (PD-L1; over 2-3 days, human and mouse tumor lines): little effect on cell viability
- expression of PD-L1 in cancer cells (PD-L1): decreased expression of PD-L1
- autophagy (mTORC1): promote autophagy
- mTORC1 signals (mTORC1): suppress mTORC1 signals

Molecule: CC1(C)S[C@@H]2[C@H](NC(=O)Cc3ccccc3)C(=O)N2[C@H]1C(=O)O [Penicillin G]
- synthetic lethality with Chk1i (RT4 cells): not induce synthetic lethality

Molecule: Cc1nnc(SCC2=C(C(=O)O)N3C(=O)[C@@H](NC(=O)Cn4cnnn4)[C@H]3SC2)s1 [cefazolin]
- synthetic lethality with Chk1i (RT4 cells): not as effective

Molecule: CO/N=C(\C(=O)N[C@@H]1C(=O)N2C(C(=O)[O-])=C(C[N+]3(C)CCCC3)CS[C@H]12)c1csc(N)n1 [cefepime]
- expression of PD-L1 in cancer cells (PD-L1): decreased expression of PD-L1
- Chk2 ([4]; FIGS. 44A-B, cells not given): depleted
- DNA damage, as measured via gH2AX ([4]; FIGS. 44A-B, cells not given): increased DNA damage
- PD-L1 ([4]; FIGS. 44A-B, cells not given): depleted
- Chk2 in vitro ([4]; RT4 cells, 75 μM, 24-96 hours): deplete Chk2
- PD-L1 expression in vitro ([4]; RT4 cells, 80 μM): deplete PD-L1 expression
- effect on rabusertib efficacy (RT4 cells; FIG. 46B, cells not given): improves rabusertib efficacy
- synthetic lethality with Chk1i (RT4 cells): elicited Chk1 inhibitor synthetic lethality in a PD-L1-dependent manner

Molecule: C[C@@H](O)[C@H]1C(=O)N2C(C(=O)O)=C(S[C@@H]3CN[C@H](C(=O)N(C)C)C3)[C@H](C)[C@H]12 [meropenem]
- synthetic lethality with Chk1i (RT4 cells): not induce synthetic lethality

Molecule: COc1cccc(OCCCN)c1-c1cc(Nc2cnc(C#N)cn2)n[nH]1 [prexasertib]
- synthetic lethality in induced PD-L1^KO tumors [5]: exhibited synthetic lethality

Molecule: atezolizumab
- viability of RT4 cells, single agent [6]: slightly reduced viability
